Source: patent US20230085307A1, “PYRIDAZINONE COMPOUND AND HERBICIDE” (NISSAN CHEMICAL CORPORATION, priority 2019, published 2023)

Assays:
redroot pigweed [1] = assay: Test Example 4: herbicidal effect by soil treatment (Table 19, symbol N); type: in vivo, redroot pigweed (Amaranthus retroflexus); settings: amount of applied herbicide 320 g/ha
In short: (§1)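 Soil-surface application: an emulsion agent diluted with water to the predetermined dose is sprayed uniformly over seeds lying under roughly 1.5 cm of sterilized diluvial soil. Boxes stay in a greenhouse at 25° C. to 30° C. Three weeks later, each species is graded on previously defined criteria.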

blackgrass = assay: Test Example 5: herbicidal effect by foliage application, plastic box (Table 20, symbol J); type: in vivo, blackgrass (Alopecurus myosuroides); settings: foliage application, AAH 320 g/ha, three weeks after application
In short: (§2)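 Sow seeds spot-wise in sterilized diluvial soil; cover with ~1.5 cm soil. Grow 14 days in greenhouse, 25° C. to 30° C. Spray foliage with emulsion diluted to predetermined amount. Rate effect after 3 weeks.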

lambsquarters = assay: Test Example 5: herbicidal effect by foliage application, plastic box (Table 20, symbol O); type: in vivo, lambsquarters (Chenopodium album); settings: foliage application, AAH 320 g/ha, three weeks after application
In short: as §2

wheat [2] = assay: Test Example 5: effect on crop by foliage application, plastic box (Table 20, symbol e); type: in vivo; settings: AAH 320 g/ha, three weeks after application
In short: as §2

wheat [3] = assay: Test Example 4: effect on crop by soil treatment (Table 19, symbol e); type: in vivo; settings: amount of applied herbicide 320 g/ha
Description: (§3) [Test Example 4] Herbicidal Effect Test by Soil Treatment
(§4) Sterilized diluvial soil was placed in a plastic box having a length of 21 cm, a width of 13 cm, and a depth of 7 cm. The seeds of each of southern crabgrass, green foxtail, barnyard grass, wild oat, blackgrass, Italian ryegrass, windgrass, velvetleaf, redroot pigweed, lambsquarters, chickweed, false cleavers, persian speedwell, corn, soybean, rice, wheat, beet, and rapeseed were sowed in a spot-like manner and covered with the soil having a thickness of about 1.5 cm. Subsequently, the emulsion agent of the compound of the present invention prepared according to Formulation Example 2 was diluted with water so as to achieve a predetermined herbicide amount, and the diluted emulsion agent was uniformly applied to the surface of the soil with a small-sized spray. The plastic box was placed in a greenhouse at 25° C. to 30° C. for growth of the plants. Three weeks after the herbicide application, the effect of the herbicide on each plant was evaluated according to the criteria of Test Example 1.

chickweed = assay: Test Example 4: herbicidal effect by soil treatment (Table 19, symbol P); type: in vivo, common chickweed (Stellaria media); settings: amount of applied herbicide 320 g/ha
In short: as §1

soybean [4] = assay: Test Example 5: effect on crop by foliage application, plastic box (Table 20, symbol d); type: in vivo; settings: AAH 320 g/ha, three weeks after application
Description: (§5) [Test Example 5] Herbicidal Effect Test by Foliage Application
as §4, with “Thereafter, the plants were grown in a greenhouse at 25° C. to 30° C. After 14-day growth of the plants,” for “Subsequently,”, “a foliage part” for “the surface of the soil”, “spray.” for “spray. The plastic box was placed in a greenhouse at 25° C. to 30° C. for growth of the plants.”

persian speedwell [5] = assay: Test Example 4: herbicidal effect by soil treatment (Table 19, symbol R); type: in vivo, Persian speedwell (Veronica persica); settings: amount of applied herbicide 320 g/ha
In short: as §1

beet [6] = assay: Test Example 5: effect on crop by foliage application, plastic box (Table 20, symbol f); type: in vivo; settings: AAH 320 g/ha, three weeks after application
Description: as §5
as §4, with “Thereafter, the plants were grown in a greenhouse at 25° C. to 30° C. After 14-day growth of the plants,” for “Subsequently,”, “a foliage part” for “the surface of the soil”, “spray.” for “spray. The plastic box was placed in a greenhouse at 25° C. to 30° C. for growth of the plants.”

barnyard grass = assay: Test Example 4: herbicidal effect by soil treatment (Table 19, symbol H); type: in vivo, barnyard grass (Echinochloa crus-galli); settings: amount of applied herbicide 320 g/ha
In short: as §1

wild oat = assay: Test Example 5: herbicidal effect by foliage application, plastic box (Table 20, symbol I); type: in vivo, wild oat (Avena fatua); settings: foliage application, AAH 320 g/ha, three weeks after application
In short: as §2

beet [7] = assay: Test Example 4: effect on crop by soil treatment (Table 19, symbol f); type: in vivo; settings: amount of applied herbicide 320 g/ha
Description: as §3, §4

green foxtail = assay: Test Example 4: herbicidal effect by soil treatment (Table 19, symbol G); type: in vivo, green foxtail (Setaria viridis); settings: amount of applied herbicide 320 g/ha
In short: as §1

windgrass [8] = assay: Test Example 5: herbicidal effect by foliage application, plastic box (Table 20, symbol L); type: in vivo, windgrass (Apera spica-venti); settings: foliage application, AAH 320 g/ha, three weeks after application
In short: as §2

soybean [9] = assay: Test Example 4: effect on crop by soil treatment (Table 19, symbol d); type: in vivo; settings: amount of applied herbicide 320 g/ha
Description: as §3, §4

redroot pigweed [10] = assay: Test Example 5: herbicidal effect by foliage application, plastic box (Table 20, symbol N); type: in vivo, redroot pigweed (Amaranthus retroflexus); settings: foliage application, AAH 320 g/ha, three weeks after application
In short: as §2

windgrass [11] = assay: Test Example 4: herbicidal effect by soil treatment (Table 19, symbol L); type: in vivo, windgrass (Apera spica-venti); settings: amount of applied herbicide 320 g/ha
In short: as §1

southern crabgrass = assay: Test Example 4: herbicidal effect by soil treatment (Table 19, symbol F); type: in vivo, southern crabgrass (Digitaria ciliaris); settings: amount of applied herbicide 320 g/ha
In short: as §1

persian speedwell [12] = assay: Test Example 5: herbicidal effect by foliage application, plastic box (Table 20, symbol R); type: in vivo, Persian speedwell (Veronica persica); settings: foliage application, AAH 320 g/ha, three weeks after application
In short: as §2

melting point: 232 to 234 °C
Compound: Cc1nn(C)c(=O)c(-c2c(-n3cc(Cl)cn3)sc3ccccc23)c1O [Compound No. 1-097, 5-hydroxy-2,6-dimethyl-4-(2-(4-chloro-1H-pyrazol-1-yl)benzo[b]thiophen-3-yl)pyridazin-3(2H)-one]
herbicidal effect rating, N: redroot pigweed (redroot pigweed [1]): 1 (Herbicidal rate of 5% or more and less than 20%)
J: blackgrass, herbicidal effect (blackgrass): 0 (Herbicidal rate of 5% or less (almost no effect))
O: lambsquarters, herbicidal effect (lambsquarters): 0 (Herbicidal rate of 5% or less (almost no effect))
e: wheat, effect on crop (wheat [2]): 0 (Herbicidal rate of 5% or less (almost no effect))
effect rating on crop, e: wheat (wheat [3]): 0 (Herbicidal rate of 5% or less (almost no effect))
herbicidal effect rating, P: chickweed (chickweed): 0 (Herbicidal rate of 5% or less (almost no effect))
d: soybean, effect on crop (soybean [4]): 0 (Herbicidal rate of 5% or less (almost no effect))
herbicidal effect rating, R: persian speedwell (persian speedwell [5]): 0 (Herbicidal rate of 5% or less (almost no effect))
f: beet, effect on crop (beet [6]): 5 (Herbicidal rate of 90% or more (almost completely withered))
herbicidal effect rating, H: barnyard grass (barnyard grass): 0 (Herbicidal rate of 5% or less (almost no effect))
I: wild oat, herbicidal effect (wild oat): 0 (Herbicidal rate of 5% or less (almost no effect))
effect rating on crop, f: beet (beet [7]): 0 (Herbicidal rate of 5% or less (almost no effect))
herbicidal effect rating, G: green foxtail (green foxtail): 0 (Herbicidal rate of 5% or less (almost no effect))
L: windgrass, herbicidal effect (windgrass [8]): 0 (Herbicidal rate of 5% or less (almost no effect))
effect rating on crop, d: soybean (soybean [9]): 0 (Herbicidal rate of 5% or less (almost no effect))
N: redroot pigweed, herbicidal effect (redroot pigweed [10]): 3 (Herbicidal rate of 40% or more and less than 70%)
herbicidal effect rating, L: windgrass (windgrass [11]): 0 (Herbicidal rate of 5% or less (almost no effect))
herbicidal effect rating, F: southern crabgrass (southern crabgrass): 0 (Herbicidal rate of 5% or less (almost no effect))
R: persian speedwell, herbicidal effect (persian speedwell [12]): 0 (Herbicidal rate of 5% or less (almost no effect))
